{
  "source": "patent US20240131032A1",
  "about": "“AN ACTIVITY-GUIDED MAP OF ELECTROPHILE-CYSTEINE INTERACTIONS IN PRIMARY HUMAN IMMUNE CELLS” (The Scripps Research Institute, priority 2019, published 2024)",
  "tested_on": "primary human T cells",
  "assay": "Multidimensional screen for inhibition of T cell activation (IL-2, IFN-γ secretion, CD25, CD69 expression)",
  "type": "cell-based",
  "details": "electrophilic compounds 10 μM each (DMF 50 μM), 24 h, anti-CD3/anti-CD28 activation",
  "method": "FIG. 4A-4D is an overview of a multidimensional screen to identify elaborated electrophilic compounds that suppress T cell activation. FIG. 4A is a workflow for T-cell activation screen. Primary human T cells were treated with a focused library of elaborated electrophilic compounds (10 μM, structures of compounds in FIG. 12), a positive control immunosuppressive compound (DMF, 50 μM), or DMSO under TCR-stimulating conditions in 96-well plates pre-coated with 5 μg/mL αCD3 and 2 μg/mL αCD28 for 24 h. T cell activation was measured using a combination of markers, including IL2 and IFNγ secretion, as well as surface expression of CD25 and CD69. T cell viability was measured by flow cytometry using a Fixable Near-IR LIVE/DEAD™ Cell Stain. Compounds were considered as active hits if they reduced IL2 cytokine production by >65% with <15% reduction in T cell viability in the cytotoxicity assay compared to DMSO control. […]\nThe levels of secreted IL2, IFNγ and TNFα after incubating T cells in the presence of DMSO or electrophilic compounds under TCR-stimulating conditions were measured using DuoSet ELISA cytokine kits (R&D Systems) in clear microplates (R&D Systems) according to manufacturer's instructions and read using a CLARIOstar (BMG Labtech) plate reader (450 nm). All cytokine concentrations were calculated according to the standard curve generated for each experiment.",
  "data": [
    {"smiles": "COC(=O)/C=C/C(=O)OC", "note": "[DMF, reference compound]", "values": [
      {"measurement": "suppress T cell activation", "result": "> 65", "unit": "%"}
    ]}
  ]
}
